Results published in patent EP4755886A1 (Chengdu Chipscreen Pharmaceutical Ltd., priority 2023, dated 2025).
Read-outs that look alike come from different tables or passages of the source.

Legend:
[1] = PK experiment in rats; assay type: in vivo; details: rat; SD male rats, PO 10 mg/kg, vehicle 0.5% MC/0.2% Tween 80, plasma
Protocol: The samples were analyzed by LC-MS/MS. […] Table 6. Pharmacokinetic parameters for rats

[2] = tested on: human large cell lung cancer cell line LU99; assay: Efficacy in LU99 xenograft mouse model; assay type: in vivo, Balb/c nude mice; details: 50 mg/kg, PO, qd, 28 days
Protocol: The human large cell lung cancer cell line LU99 was purchased from Nanjing Cobioer Biosciences Co., Ltd. (CBP61512) and cultured in RPMI-1640 medium (Gibco) containing 10% fetal bovine serum (Gibco); the test substances were prepared into suspensions at concentrations of 0.3 mg/mL, 1 mg/mL, and 5 mg/mL using a 0.5% aqueous MC solution containing 0.2% Tween 80. Reference Example 6 (MRTX1719) was prepared into a 5 mg/mL clear solution using 40% PEG400 normal saline containing 2% DMSO.
LU99 cells in the logarithmic growth phase were digested, collected, and counted, and the cell density was adjusted to 2 × 10^7 cells/mL using a 1:1 serum-free medium and matrigel (Corning). 18-20 g of Balb/c nude mice (Beijing Huafukang Biotechnology Co., Ltd.) were inoculated subcutaneously with 100 µL of cell suspension per mouse. On day 12 after inoculation, animals with a mean tumor volume of 116 mm^3 were randomly grouped, with 7 animals in each group. The test substances were intragastrically administered at 3 mg/kg, 10 mg/kg, and 50 mg/kg once daily, and MRTX1719 was intragastrically administered at 50 mg/kg once daily. A vehicle (2% DMSO + 40% PEG400 + 58% normal saline) was intragastrically administered to the blank group at a dose of 10 mL/kg once daily. Administration was performed for 28 days in total.
After the animals were inoculated with LU99 cells, the tumor volume was measured 2-3 times a week, and the tumor volume was calculated based on length × width^2 × 0.5. On the day when the last administration was completed, except for the mice with tumor regression, which were subjected to discontinuation observation, the remaining mice were euthanized.
In the formula, VTt represents the tumor volume of the treatment group at each measurement, and VT0 represents the tumor volume measured when the treatment group is grouped; VCt represents the tumor volume of the model control group at each measurement, and VC0 represents the tumor volume measured when the model control group is grouped.
Data were analyzed using GraphPad Prism 9.0 software and expressed as Mean ± SEM (standard error). Pairwise comparisons between each administration group and the model control group were performed using one-way analysis of variance (ANOVA). Variance homogeneity was determined using the Brown-Forsythe method, and variance heterogeneity was determined using the Dunnett's T3 method. Table 8. Efficacy evaluation in LU99 xenograft mouse model

[3] = target: T1, hERG (Homo sapiens, UniProt Q12809); assay: hERG test (Predictor hERG Fluorescence Polarization Assay Kit); assay type: binding
T1 construct: purchased ThermoFisher Scientific PV5365
T1 sequence (Q12809 whole entry): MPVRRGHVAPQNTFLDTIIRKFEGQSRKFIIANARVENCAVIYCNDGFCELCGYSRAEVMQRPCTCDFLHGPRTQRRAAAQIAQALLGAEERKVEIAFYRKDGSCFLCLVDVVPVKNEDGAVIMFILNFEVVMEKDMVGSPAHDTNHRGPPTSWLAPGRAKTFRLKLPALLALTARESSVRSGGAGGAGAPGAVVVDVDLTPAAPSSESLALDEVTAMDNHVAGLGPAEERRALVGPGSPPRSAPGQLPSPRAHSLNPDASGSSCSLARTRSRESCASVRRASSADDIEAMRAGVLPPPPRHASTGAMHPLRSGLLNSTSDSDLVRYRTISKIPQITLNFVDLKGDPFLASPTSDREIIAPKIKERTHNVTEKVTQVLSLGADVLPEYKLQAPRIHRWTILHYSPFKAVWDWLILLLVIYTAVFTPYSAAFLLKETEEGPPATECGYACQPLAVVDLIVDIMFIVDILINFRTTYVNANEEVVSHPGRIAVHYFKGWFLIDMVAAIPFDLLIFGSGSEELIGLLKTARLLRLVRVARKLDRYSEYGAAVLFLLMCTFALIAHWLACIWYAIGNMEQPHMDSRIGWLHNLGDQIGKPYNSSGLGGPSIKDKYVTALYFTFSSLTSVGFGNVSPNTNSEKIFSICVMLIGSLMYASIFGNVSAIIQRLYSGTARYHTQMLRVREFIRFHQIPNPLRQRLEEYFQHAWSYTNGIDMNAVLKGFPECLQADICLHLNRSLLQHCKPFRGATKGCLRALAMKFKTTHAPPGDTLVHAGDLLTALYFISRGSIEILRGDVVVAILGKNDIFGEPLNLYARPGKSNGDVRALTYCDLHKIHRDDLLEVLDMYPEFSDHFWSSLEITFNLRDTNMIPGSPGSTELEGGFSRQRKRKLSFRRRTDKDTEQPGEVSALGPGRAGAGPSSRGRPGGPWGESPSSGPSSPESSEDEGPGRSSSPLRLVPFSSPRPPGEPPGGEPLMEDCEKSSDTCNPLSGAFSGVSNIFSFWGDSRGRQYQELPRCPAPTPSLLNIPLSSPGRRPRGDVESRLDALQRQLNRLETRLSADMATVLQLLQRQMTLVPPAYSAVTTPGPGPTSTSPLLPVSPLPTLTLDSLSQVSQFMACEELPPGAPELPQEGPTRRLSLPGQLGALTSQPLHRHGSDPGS
Protocol: Predictor™ hERG Fluorescence Polarization Assay Kit (ThermoFisher Scientific, PV5365).
The procedures in the kit instructions were followed: 4× Predictor™ hERG Tracer Red, 4× E-4031, and 4× test substance solutions (final assay concentration: 10 µM) were prepared in advance. 5 µL Predictor™ hERG FP Assay Buffer and 5 µL Predictor™ hERG Membrane were added sequentially to the Assay Blank group in a 384-well plate. 2.5 µL Predictor™ hERG FP Assay Buffer, 2.5 µL of 4× E-4031, and 2.5 µL of 4× test substance were added to the negative control group, the positive control group, and the test substance group, respectively, and then 5 µL Predictor™ hERG Membrane and 2.5 µL of 4× Predictor™ hERG Tracer Red were sequentially added. The total volume of the experimental system was 10 µL, and three duplicate wells were set for each group. After loading, the plate was gently tapped to mix well and incubated at room temperature (25 °C) in the dark for 3.5 h. After the incubation was completed, the fluorescence polarization value mP was measured on a microplate reader, and G Factor was 2.14.
The inhibition rate of the test substance was calculated using the following formula: [formula]

[4] = PK experiment in mice; details: mouse, plasma, po, 10 mg/kg
Protocol: Experimental materials: the experimental animals were healthy adult female BALB/c mice (provided by Sichuan Vital River Laboratory Animal Technology Co., Ltd.).
Administration mode and sample collection in mice: BALB/c female mice received oral intragastrical administration (10 mg/kg, vehicle: 0.5% methylcellulose/0.2% Tween 80), and 60 µL of whole blood from the venous plexus of the fundus of the mice at different time points was collected at 0.25 h, 0.5 h, 1 h, 2 h, 4 h, 6 h, 8 h, and 24 h after administration and centrifuged at 4000 rpm for 6 min to collect plasma.
10 µL of mouse plasma sample was added to 190 µL of acetonitrile solution containing an internal standard to precipitate protein. The mixture was vortexed for 10 min and centrifuged at 4000 rpm for 10 min. The supernatant was collected and added to a 96-well plate. The samples were analyzed by LC-MS/MS. The drug concentrations in the plasma of mice at different time points after intragastric administration of the example compounds were measured by an LC-MS/MS method, and the related pharmacokinetic parameters were calculated, such that the pharmacokinetic behavior of the compounds in the mice was studied, and the pharmacokinetic characteristics were evaluated.

[5] = tested on: gene-editing MTAP-/- human colon cancer cell strain HCT116; assay: Efficacy in MTAP-/- HCT116 subcutaneous xenograft mouse model; assay type: in vivo, Balb/c nude mice; details: 50 mg/kg, PO, qd, 28 days
Protocol: The blank group contained 40% PEG400 normal saline with 2% DMSO. […] The test substance was intragastrically administered at 10 mg/kg once daily, and MRTX1719 was intragastrically administered at 50 mg/kg once daily. Model control: The vehicle (2% DMSO + 40% PEG400 + 58% normal saline) was intragastrically administered at a dose of 10 mL/kg once daily. Administration was performed for 28 days in total. […] The mice were euthanized on the day when the last administration was completed. […] In the formula, VTt represents the tumor volume of the treatment group at each measurement, and VT0 represents the tumor volume measured when the treatment group is grouped; VCt represents the tumor volume of the vehicle group at each measurement (same as VTt), and VC0 represents the tumor volume measured when the vehicle group is grouped. Data were analyzed using GraphPad Prism 9.0 software and expressed as Mean ± SEM (standard error). Pairwise comparisons between each administration group and the control group were performed using one-way analysis of variance (ANOVA). Variance homogeneity was determined using the Brown-Forsythe method, and variance heterogeneity was determined using the Dunnett's T3 method. Table 7. Efficacy evaluation in HCT116 subcutaneous xenograft mouse model

[6] = target: T2, CYP450 enzyme 3A4 (Homo sapiens, UniProt P08684); assay: CYP inhibition test in human liver microsomes; assay type: in vitro ADME; details: human liver microsomes 0.1 mg/mL
T2 construct: Liver microsomes (purchased from BIOIVT, Cat. No.: X008070); tissue BIOIVT X008070; host or cells: human liver microsomes
T2 sequence (P08684 whole entry): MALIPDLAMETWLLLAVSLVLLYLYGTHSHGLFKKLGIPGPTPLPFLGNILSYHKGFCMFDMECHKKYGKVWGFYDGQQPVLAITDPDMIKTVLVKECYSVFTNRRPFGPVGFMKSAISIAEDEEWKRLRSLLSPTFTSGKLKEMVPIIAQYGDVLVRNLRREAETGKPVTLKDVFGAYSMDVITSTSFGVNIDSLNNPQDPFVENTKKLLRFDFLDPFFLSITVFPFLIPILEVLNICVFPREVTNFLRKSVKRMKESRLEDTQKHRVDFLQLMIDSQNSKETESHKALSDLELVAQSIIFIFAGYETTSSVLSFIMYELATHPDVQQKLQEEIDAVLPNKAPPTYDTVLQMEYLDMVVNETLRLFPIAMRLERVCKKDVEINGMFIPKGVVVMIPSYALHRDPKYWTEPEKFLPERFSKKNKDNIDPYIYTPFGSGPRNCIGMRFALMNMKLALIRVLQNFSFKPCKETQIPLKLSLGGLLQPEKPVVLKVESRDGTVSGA
Protocol: Experimental materials: human liver microsomes (purchased from BIOIVT);
PBS: 0.1 M KH2PO4 and K2HPO4 buffers, pH 7.4.
MgCl2: a certain amount of MgCl2 was weighed out and prepared into a 20 mM MgCl2 solution with PBS.
NADPH (Chinese name: reduced nicotinamide adenine dinucleotide phosphate, purchased from Sigma, Cat. No.: 481973-500 mg): a certain amount of NADPH was weighed out and a 5 mM solution of NADPH was prepared with a 20 mM MgCl2 solution, and the final incubation concentration was 1 mM.
Compounds: 3 mM, 1 mM, 0.3 mM, 0.1 mM, 0.03 mM, 0.01 mM, and 0 mM solutions of the test compounds were prepared with a DMSO-methanol (v:v = 1:9) solution, and the final incubation concentrations were 30 µM, 10 µM, 3 µM, 1 µM, 0.3 µM, 0.1 µM, and 0 µM. 30 µM, 10 µM, 3 µM, 1 µM, 0.3 µM, and 0 µM solutions of the positive compound (ketoconazole) were prepared with a DMSO-methanol (v:v = 1:9) solution, and the final incubation concentrations were 0.3 µM, 0.1 µM, 0.03 µM, 0.01 µM, 0.003 µM, and 0 µM.
Substrate working solutions: 200 µM and 15 µM solutions of substrate working solutions (testosterone and midazolam) were prepared with PBS, separately, and the final incubation concentrations were 40 µM and 3 µM.
Liver microsomes (purchased from BIOIVT, Cat. No.: X008070): the liver microsomes were diluted to […] with PBS, and the final incubation concentration was 0.1 mg/mL.
The prepared test compounds or positive compounds were added to a 96-well plate, and then the prepared human liver microsome working solution and substrate working solution were added. The mixture was mixed well. The mixture was pre-incubated in a thermostat incubator at 37 °C for 5 min, and then the prepared NADPH was added to start the reaction. The mixture was incubated for 5 min or 10 min. After the incubation was completed, a pre-cooled acetonitrile solution containing an internal standard was added to terminate the reaction. After protein precipitation, the mixture was vortexed for 5 min with shaking and then centrifuged at 4000 rpm for 10 min. The supernatant was collected and added to the 96-well plate. The content (peak concentration ratio) of the metabolites of the substrate was determined by an LC-MS/MS method. The residual activity and the half maximal inhibitory concentration (IC50) of the enzyme were calculated based on the detected content.
Percentage of remaining enzyme activity: The activity of each subtype of CYP450 enzyme was expressed as the amount of metabolite produced, and the percentage of remaining enzyme activity was calculated as follows: [formula]
The concentrations of the test substances and the corresponding residual activity percentages were fitted using a nonlinear model of Excel software, and the concentration of the test substances at which 50% inhibition of metabolite production was achieved was the IC50 value.

Cn1ncc(-c2ccc3c(=O)[nH]nc(CN)c3c2)c1-c1c(F)c(Cl)cc(OC2CC2)c1C#N (atropisomer, axis not shown) [Reference Example 6, reference compound]
AUC(0-t) [1]: 100 ± 103 ng·h/mL | Cmax [1]: 107 ± 149 ng/mL | TGI [2]: 90.96% | Tumor volume [2]: 279.68 mm^3 | inhibition at 3.5 h, 10 µM ([3]; herg membrane fluorescence polarization, 10 µM test substance, three duplicate wells): 77.4% | IC50 ([3]; only 10 µM tested): < 10000 nM | AUC(0-t) [4]: 1970 ± 316 ng·h/mL | Cmax [4]: 428 ± 220 ng/mL | TGI [5]: 72.21% | Tumor volume [5]: 525.74 mm^3 | IC50 ([6]; substrate midazolam 3 µM, read-out: IC50 3A4-Midazolam): 2130 nM | IC50 ([6]; substrate testosterone 40 µM, read-out: IC50 3A4-Testosterone): 1950 nM
